According to ChEMBL document CHEMBL1909046, “DrugMatrix in vitro pharmacology data”:

Legend:
[1] = target: T1, Thromboxane-A synthase (Homo sapiens, UniProt P24557); test: biochemical; assay type: tissue-based, Platelet; conditions: platelet;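 note: enzyme inhibition assay with PGH2 supplied as substrate; in other assays of this panel Not Active means under 50% inhibition at 10 µM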
T1 sequence (P24557 whole entry): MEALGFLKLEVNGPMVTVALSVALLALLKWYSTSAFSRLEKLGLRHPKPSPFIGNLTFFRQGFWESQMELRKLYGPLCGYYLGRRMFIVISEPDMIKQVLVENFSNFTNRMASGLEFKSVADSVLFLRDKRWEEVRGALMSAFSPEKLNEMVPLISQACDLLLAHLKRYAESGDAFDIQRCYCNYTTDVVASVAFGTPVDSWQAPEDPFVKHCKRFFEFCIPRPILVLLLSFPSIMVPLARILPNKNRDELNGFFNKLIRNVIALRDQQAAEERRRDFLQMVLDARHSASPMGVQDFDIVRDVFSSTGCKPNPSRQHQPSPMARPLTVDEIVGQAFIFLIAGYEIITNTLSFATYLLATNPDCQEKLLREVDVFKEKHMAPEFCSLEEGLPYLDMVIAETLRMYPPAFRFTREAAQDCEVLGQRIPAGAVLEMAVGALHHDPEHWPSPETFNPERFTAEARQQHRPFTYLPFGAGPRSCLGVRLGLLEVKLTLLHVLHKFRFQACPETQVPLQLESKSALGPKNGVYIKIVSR

[2] = target: Prostaglandin G/H synthase 1 (Homo sapiens, UniProt P23219); test: biochemical; assay type: tissue-based, Platelet;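 note: inhibition of COX-1 enzyme activity, with arachidonic acid supplied as substrate; in other assays of this panel Not Active means under 50% inhibition at 10 µM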
Prostaglandin G/H synthase 1, sequence (P23219 whole entry): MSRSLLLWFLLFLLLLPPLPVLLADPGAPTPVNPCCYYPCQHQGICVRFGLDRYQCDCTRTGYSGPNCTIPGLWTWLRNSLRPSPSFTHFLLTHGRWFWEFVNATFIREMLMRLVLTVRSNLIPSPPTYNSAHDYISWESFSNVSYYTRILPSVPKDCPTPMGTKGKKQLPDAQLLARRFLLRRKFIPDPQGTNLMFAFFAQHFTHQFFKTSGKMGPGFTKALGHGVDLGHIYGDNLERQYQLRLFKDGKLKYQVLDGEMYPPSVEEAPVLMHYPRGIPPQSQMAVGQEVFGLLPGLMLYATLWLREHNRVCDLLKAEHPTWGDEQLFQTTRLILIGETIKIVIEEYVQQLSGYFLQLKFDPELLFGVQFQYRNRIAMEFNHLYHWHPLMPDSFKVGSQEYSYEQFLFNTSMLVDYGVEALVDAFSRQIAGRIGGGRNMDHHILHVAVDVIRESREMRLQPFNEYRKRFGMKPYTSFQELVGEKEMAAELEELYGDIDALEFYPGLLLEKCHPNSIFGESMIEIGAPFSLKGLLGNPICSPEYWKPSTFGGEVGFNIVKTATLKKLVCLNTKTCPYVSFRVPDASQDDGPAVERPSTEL

[3] = target: Sodium-dependent dopamine transporter (Homo sapiens, UniProt Q01959); test: DRUGMATRIX: Dopamine Transporter radioligand binding (ligand: [125I] RTI-55); assay type: cell membranes, CHO-K1, Membrane; conditions: Not Active = under 50% inhibition at 10 µM; for Ki: read-out: Ki
Sodium-dependent dopamine transporter, sequence (Q01959 whole entry): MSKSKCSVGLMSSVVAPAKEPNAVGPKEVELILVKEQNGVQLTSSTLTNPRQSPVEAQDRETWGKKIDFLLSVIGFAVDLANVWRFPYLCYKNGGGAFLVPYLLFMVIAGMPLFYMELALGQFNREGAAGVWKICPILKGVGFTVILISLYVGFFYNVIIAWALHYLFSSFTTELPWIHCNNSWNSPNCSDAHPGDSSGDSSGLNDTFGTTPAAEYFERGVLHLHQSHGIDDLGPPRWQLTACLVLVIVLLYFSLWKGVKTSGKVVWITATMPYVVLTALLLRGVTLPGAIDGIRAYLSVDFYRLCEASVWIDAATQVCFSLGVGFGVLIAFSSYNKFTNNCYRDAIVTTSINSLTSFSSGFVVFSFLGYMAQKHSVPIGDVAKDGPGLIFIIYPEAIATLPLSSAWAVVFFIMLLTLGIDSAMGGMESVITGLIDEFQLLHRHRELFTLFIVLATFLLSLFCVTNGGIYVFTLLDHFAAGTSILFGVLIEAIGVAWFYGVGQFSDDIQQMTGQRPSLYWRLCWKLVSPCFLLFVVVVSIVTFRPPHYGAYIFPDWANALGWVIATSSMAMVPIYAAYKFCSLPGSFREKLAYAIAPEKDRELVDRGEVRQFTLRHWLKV

[4] = target: Insulin receptor (Rattus norvegicus, UniProt P15127); assay type: cell membranes, Wistar, Liver, Membrane; note: in other assays of this panel Not Active means under 50% inhibition at 10 µM
Insulin receptor, sequence (P15127 27-759 limits assumed): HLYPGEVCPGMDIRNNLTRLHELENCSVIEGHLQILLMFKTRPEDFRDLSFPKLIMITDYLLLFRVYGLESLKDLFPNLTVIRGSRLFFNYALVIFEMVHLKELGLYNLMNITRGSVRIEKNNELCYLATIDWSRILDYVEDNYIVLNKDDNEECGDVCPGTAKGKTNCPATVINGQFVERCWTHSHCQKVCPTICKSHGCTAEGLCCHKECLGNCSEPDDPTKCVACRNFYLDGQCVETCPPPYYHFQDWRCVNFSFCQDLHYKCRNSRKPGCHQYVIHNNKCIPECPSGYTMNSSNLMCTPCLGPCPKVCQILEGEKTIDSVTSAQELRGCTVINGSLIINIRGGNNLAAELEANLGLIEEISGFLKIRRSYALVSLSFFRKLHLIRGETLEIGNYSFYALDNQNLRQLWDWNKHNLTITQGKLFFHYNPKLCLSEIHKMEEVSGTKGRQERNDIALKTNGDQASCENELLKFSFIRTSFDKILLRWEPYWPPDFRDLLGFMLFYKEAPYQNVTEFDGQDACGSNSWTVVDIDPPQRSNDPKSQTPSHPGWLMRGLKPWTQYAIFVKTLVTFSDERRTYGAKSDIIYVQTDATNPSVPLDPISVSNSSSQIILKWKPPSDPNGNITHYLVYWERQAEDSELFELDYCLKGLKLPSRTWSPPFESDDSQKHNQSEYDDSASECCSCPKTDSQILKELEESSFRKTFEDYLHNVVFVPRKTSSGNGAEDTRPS
Insulin receptor, sequence (P15127 764-1383 limits assumed): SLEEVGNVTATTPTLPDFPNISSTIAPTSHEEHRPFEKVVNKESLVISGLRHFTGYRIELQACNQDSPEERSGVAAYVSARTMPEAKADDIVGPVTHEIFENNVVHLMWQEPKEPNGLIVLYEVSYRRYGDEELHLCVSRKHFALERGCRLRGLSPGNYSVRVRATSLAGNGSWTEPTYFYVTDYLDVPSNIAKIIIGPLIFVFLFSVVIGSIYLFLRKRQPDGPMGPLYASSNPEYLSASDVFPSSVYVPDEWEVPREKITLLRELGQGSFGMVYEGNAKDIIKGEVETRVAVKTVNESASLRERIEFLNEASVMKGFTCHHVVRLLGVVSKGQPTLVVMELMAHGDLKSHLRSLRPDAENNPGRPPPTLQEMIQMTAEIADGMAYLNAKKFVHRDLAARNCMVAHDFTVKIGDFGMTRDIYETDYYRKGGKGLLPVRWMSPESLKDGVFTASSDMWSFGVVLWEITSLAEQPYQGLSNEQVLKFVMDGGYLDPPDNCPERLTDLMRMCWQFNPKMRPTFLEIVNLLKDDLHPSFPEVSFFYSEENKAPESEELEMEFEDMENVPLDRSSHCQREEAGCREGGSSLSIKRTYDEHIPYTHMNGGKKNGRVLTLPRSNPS

[5] = target: T2, Polyunsaturated fatty acid lipoxygenase ALOX15 (Oryctolagus cuniculus, UniProt P12530); test: biochemical; assay type: tissue-based, Reticulocytes;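 note: inhibition of 15-lipoxygenase enzyme activity measured with linoleic acid as the substrate; in other assays of this panel Not Active means under 50% inhibition at 10 µM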
T2 sequence (P12530 whole entry): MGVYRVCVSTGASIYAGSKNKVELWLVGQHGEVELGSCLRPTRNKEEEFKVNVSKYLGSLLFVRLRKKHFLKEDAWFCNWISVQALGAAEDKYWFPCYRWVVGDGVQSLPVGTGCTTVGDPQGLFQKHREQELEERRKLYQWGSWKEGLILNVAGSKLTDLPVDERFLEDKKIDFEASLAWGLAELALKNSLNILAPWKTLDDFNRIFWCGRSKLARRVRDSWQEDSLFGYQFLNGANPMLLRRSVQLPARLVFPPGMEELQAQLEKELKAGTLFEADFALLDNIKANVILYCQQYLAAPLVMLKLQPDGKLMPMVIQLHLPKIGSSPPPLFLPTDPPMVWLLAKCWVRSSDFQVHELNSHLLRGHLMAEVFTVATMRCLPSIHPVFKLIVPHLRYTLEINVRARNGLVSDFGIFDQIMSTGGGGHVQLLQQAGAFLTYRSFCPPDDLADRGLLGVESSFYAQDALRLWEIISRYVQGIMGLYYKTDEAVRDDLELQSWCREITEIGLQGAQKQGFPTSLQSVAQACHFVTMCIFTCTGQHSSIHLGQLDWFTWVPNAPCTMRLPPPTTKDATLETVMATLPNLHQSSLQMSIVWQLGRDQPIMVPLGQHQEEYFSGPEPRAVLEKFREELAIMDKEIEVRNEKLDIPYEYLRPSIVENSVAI

[6] = target: Mitogen-activated protein kinase 1 (Homo sapiens, UniProt P28482); test: DRUGMATRIX: Protein Serine/Threonine Kinase, ERK2 enzyme inhibition (substrate: Myelin Basic Protein); parameters: species or system Escherichia coli; conditions: Not Active = under 50% inhibition at 10 µM
Mitogen-activated protein kinase 1, sequence (P28482 whole entry): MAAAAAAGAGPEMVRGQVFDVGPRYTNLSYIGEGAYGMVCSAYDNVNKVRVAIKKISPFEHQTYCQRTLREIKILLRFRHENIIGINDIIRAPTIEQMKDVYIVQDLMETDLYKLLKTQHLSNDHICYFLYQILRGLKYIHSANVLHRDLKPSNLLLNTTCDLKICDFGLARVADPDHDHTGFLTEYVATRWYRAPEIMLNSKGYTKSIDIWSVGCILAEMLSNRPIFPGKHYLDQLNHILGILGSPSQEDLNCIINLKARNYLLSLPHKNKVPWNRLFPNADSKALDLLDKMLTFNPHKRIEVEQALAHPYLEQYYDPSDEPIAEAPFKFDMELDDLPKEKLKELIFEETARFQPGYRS

Structure (SMILES) | IC50 [1] | IC50 ([2]; platelet) | IC50 ([3]; cho-k1) | IC50 [4] | IC50 ([5]; reticulocytes) | IC50 [6] | IC50 ([3]; read-out: IC50) | Ki [3] | IC50 ([5]; read-out: IC50) | IC50 ([2]; read-out: IC50)
CC[C@H]1OC(=O)[C@H](C)[C@@H](O[C@H]2C[C@@](C)(OC)[C@@H](O)[C@H](C)O2)[C@H](C)[C@@H](O[C@@H]2O[C@H](C)C[C@H](N(C)C)[C@H]2O)[C@](C)(OC)C[C@@H](C)C(=O)[C@H](C)[C@@H](O)[C@]1(C)O [CLARITHROMYCIN] | Not Active | Not Active | Not Active | Not Active | Not Active | Not Active | – | – | – | –
CCC[C@@H]1C[C@@H](C(=O)N[C@@H]([C@H]2O[C@H](SC)[C@H](O)[C@@H](O)[C@H]2O)[C@H](C)Cl)N(C)C1 [CLINDAMYCIN] | Not Active | Not Active | Not Active | Not Active | Not Active | Not Active | – | – | – | –
O=C(O)c1cc(=O)c2c(OCC(O)COc3cccc4oc(C(=O)O)cc(=O)c34)cccc2o1 [CROMOLYN] | Not Active | Not Active | Not Active | Not Active | Not Active | Not Active | – | – | – | –
O=P1(N(CCCl)CCCl)NCCCO1 (stereo not drawn) [CYCLOPHOSPHAMIDE ANHYDROUS] | Not Active | Not Active | Not Active | Not Active | Not Active | Not Active | – | – | – | –
CC(=O)O[C@]1(C(C)=O)CC[C@H]2[C@@H]3C=C(Cl)C4=CC(=O)[C@@H]5C[C@@H]5[C@]4(C)[C@H]3CC[C@@]21C [CYPROTERONE ACETATE] | Not Active | Not Active | Not Active | Not Active | Not Active | Not Active | – | – | – | –
Nc1nc(N)nc(NC2CC2)n1 [CYROMAZINE] | Not Active | Not Active | Not Active | Not Active | Not Active | Not Active | – | – | – | –
C#C[C@]1(O)CC[C@H]2[C@@H]3CCC4=Cc5oncc5C[C@]4(C)[C@H]3CC[C@@]21C [DANAZOL] | Not Active | Not Active | – | Not Active | Not Active | Not Active | 6.84 µM | 5.44 µM | – | –
CCN[C@@H](C)Cc1cccc(C(F)(F)F)c1 [DEXFENFLURAMINE] | Not Active | Not Active | Not Active | Not Active | Not Active | Not Active | – | – | – | –
CN1C(=O)CN=C(c2ccccc2)c2cc(Cl)ccc21 [DIAZEPAM] | Not Active | Not Active | Not Active | Not Active | Not Active | Not Active | – | – | – | –
CN1C[C@H](C(=O)N[C@]2(C)O[C@@]3(O)[C@@H]4CCCN4C(=O)[C@H](Cc4ccccc4)N3C2=O)C[C@@H]2c3cccc4[nH]cc(c34)C[C@H]21 [DIHYDROERGOTAMINE] | Not Active | Not Active | Not Active | Not Active | Not Active | Not Active | – | – | – | –
CC(CCc1ccc(O)cc1)NCCc1ccc(O)c(O)c1 (stereo not drawn) [DOBUTAMINE] | Not Active | Not Active | – | Not Active | – | Not Active | 0.155 µM | 0.123 µM | 0.599 µM | –
CCn1cc(C(=O)O)c(=O)c2cc(F)c(N3CCNCC3)nc21 [ENOXACIN] | Not Active | Not Active | Not Active | Not Active | Not Active | Not Active | – | – | – | –
CCC(=O)O[C@H]1[C@H](O[C@@H]2[C@@H](C)[C@H](O[C@H]3C[C@@](C)(OC)[C@@H](O)[C@H](C)O3)[C@@H](C)C(=O)O[C@H](CC)[C@@](C)(O)[C@H](O)[C@@H](C)C(=O)[C@H](C)C[C@@]2(C)O)O[C@H](C)C[C@@H]1N(C)C [ERYTHROMYCIN PROPIONATE] | Not Active | Not Active | Not Active | Not Active | Not Active | Not Active | – | – | – | –
C=C(CC)C(=O)c1ccc(OCC(=O)O)c(Cl)c1Cl [ETHACRYNIC ACID] | Not Active | Not Active | Not Active | Not Active | Not Active | Not Active | – | – | – | –
C#C[C@]1(O)CC[C@H]2[C@@H]3CCc4cc(O)ccc4[C@H]3CC[C@@]21C [ETHINYL ESTRADIOL] | Not Active | Not Active | – | Not Active | – | Not Active | 0.559 µM | 0.444 µM | 5.68 µM | –
OCCO [ETHYLENE GLYCOL] | Not Active | Not Active | Not Active | Not Active | Not Active | Not Active | – | – | – | –
CC(=O)OCC(CCn1cnc2cnc(N)nc21)COC(C)=O [FAMCICLOVIR] | Not Active | Not Active | Not Active | Not Active | Not Active | Not Active | – | – | – | –
O=C(O)Cc1ccc(-c2ccccc2)cc1 [FELBINAC] | Not Active | – | Not Active | Not Active | Not Active | Not Active | – | – | – | 0.894 µM
CCOC(=O)C1=C(C)NC(C)=C(C(=O)OC)C1c1cccc(Cl)c1Cl (stereo not drawn) [FELODIPINE] | Not Active | Not Active | Not Active | Not Active | Not Active | Not Active | – | – | – | –
Cc1cn[nH]c1 [FOMEPIZOLE] | Not Active | Not Active | Not Active | Not Active | Not Active | Not Active | – | – | – | –
NC[C@@H]1O[C@H](O[C@H]2[C@@H](O)[C@H](O[C@@H]3[C@@H](O)[C@H](N)C[C@H](N)[C@H]3O[C@H]3O[C@H](CN)[C@@H](O)[C@H](O)[C@H]3N)O[C@@H]2CO)[C@H](N)[C@@H](O)[C@@H]1O [FRAMYCETIN] | Not Active | Not Active | Not Active | Not Active | Not Active | Not Active | – | – | – | –
C[C@H]([C@](O)(Cn1cncn1)c1ccc(F)cc1F)S(C)(=O)=O [GENACONAZOLE] | Not Active | Not Active | Not Active | Not Active | Not Active | Not Active | – | – | – | –
Cc1c(F)c(N2CCNC(C)C2)cc2c1c(=O)c(C(=O)O)cn2C1CC1 (stereo not drawn) [GREPAFLOXACIN] | Not Active | Not Active | Not Active | Not Active | Not Active | Not Active | – | – | – | –
COc1ccccc1OCC(O)CO (stereo not drawn) [GUAIFENESIN] | Not Active | Not Active | Not Active | Not Active | Not Active | Not Active | – | – | – | –
N=C(N)N/N=C/c1c(Cl)cccc1Cl [GUANABENZ] | Not Active | Not Active | Not Active | Not Active | Not Active | Not Active | – | – | – | –
C[C@]12CCC(=O)C=C1CC[C@@H]1[C@@H]2[C@@H](O)C[C@@]2(C)[C@H]1CC[C@]2(O)C(=O)CO [HYDROCORTISONE] | Not Active | Not Active | Not Active | Not Active | Not Active | Not Active | – | – | – | –
C/C=C\c1ccc(O)c(OC)c1 [ISOEUGENOL] | Not Active | Not Active | Not Active | Not Active | Not Active | Not Active | – | – | – | –
NC[C@H]1O[C@H](O[C@H]2[C@H](O)[C@@H](O[C@H]3O[C@H](CO)[C@@H](O)[C@H](N)[C@H]3O)[C@H](N)C[C@@H]2N)[C@H](O)[C@@H](O)[C@@H]1O [KANAMYCIN] | Not Active | Not Active | Not Active | Not Active | Not Active | Not Active | – | – | – | –
CC[C@H](C)C(=O)O[C@H]1C[C@@H](C)C=C2C=C[C@H](C)[C@H](CC[C@@H]3C[C@@H](O)CC(=O)O3)[C@H]21 [LOVASTATIN] | Not Active | Not Active | – | Not Active | Not Active | Not Active | 10.1 µM | 8.03 µM | – | –
